Reference: ChEMBL document CHEMBL1201862, “PubChem BioAssay data set” (2004)
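96-well plates; 48 h exposure; 5 concentrations. Endpoints by linear interpolation between flanking doses. Not reached: highest tested concentration assigned. GI50 marks 50% less growth.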 Calls of active or inactive are those of the source. Rule as the data show it: active = GI50 up to about 1.1 µM and inactive = higher.

What was measured:
Experiment in all cases: inhibition of tumour cell growth, NCI panel, 48 h
[1] = tested on: MOLT-4
[2] = tested on: SK-MEL-28
[3] = tested on: UO-31
[4] = tested on: HOP-92
[5] = tested on: DMS-114
[6] = tested on: DLD-1
[7] = tested on: 786-0
[8] = tested on: HCT-116
[9] = tested on: HOP-62
[10] = tested on: HCC 2998
[11] = tested on: CCRF-CEM
[12] = tested on: TK-10
[13] = tested on: K562
[14] = tested on: SN12C
[15] = tested on: SK-MEL-5
[16] = tested on: OVCAR-5
[17] = tested on: COLO 205
[18] = tested on: A549
[19] = tested on: NCI-H23
[20] = tested on: RXF 631
[21] = tested on: ACHN
[22] = tested on: OVCAR-4
[23] = tested on: DMS-273
[24] = tested on: SR
[25] = tested on: UACC-62
[26] = tested on: RPMI-8226
[27] = tested on: XF498
[28] = tested on: SF-539
[29] = tested on: KM-20L2
[30] = tested on: NCI-H460
[31] = tested on: IGROV-1
[32] = tested on: UACC-257
[33] = tested on: NCI-H226
[34] = tested on: OVCAR-3
[35] = tested on: HCT-15
[36] = tested on: KM12
[37] = tested on: CAKI-1
[38] = tested on: SK-MEL-2
[39] = tested on: RXF 393
[40] = tested on: M19-MEL
[41] = tested on: SF-295
[42] = tested on: HT-29
[43] = tested on: SK-OV-3
[44] = tested on: SNB-78
[45] = tested on: Malme-3M
[46] = tested on: SNB-75
[47] = tested on: M14
[48] = tested on: SF-268
[49] = tested on: U-251
[50] = tested on: HL-60
[51] = tested on: A498
[52] = tested on: SNB-19
[53] = tested on: OVCAR-8
[54] = tested on: HOP-18
[55] = tested on: LXFL 529
[56] = tested on: EKVX
[57] = tested on: SW-620
[58] = tested on: LOX IMVI
[59] = tested on: NCI-H522

Measured: GI50

Cc1cc(C)nc(NS(=O)(=O)c2ccc(Nc3c4ccccc4nc4c(C(=O)N5CCN(CCOS(C)(=O)=O)CC5)ccc(Cl)c34)cc2)n1
inactive: [1] > 100 µM | [2] > 100 µM | [3] > 100 µM | [4] > 100 µM | [5] > 100 µM | [6] > 100 µM | [7] 43.7 µM | [8] > 100 µM | [9] > 100 µM | [10] > 100 µM | [11] > 100 µM | [12] 54.1 µM | [13] > 100 µM | [14] > 100 µM | [15] > 100 µM | [16] > 100 µM | [17] > 100 µM | [18] > 100 µM | [19] > 100 µM | [20] > 100 µM | [21] > 100 µM | [22] > 100 µM | [23] > 100 µM | [24] > 100 µM | [25] > 100 µM | [26] > 100 µM | [27] > 100 µM | [28] > 100 µM | [29] > 100 µM | [30] > 100 µM | [31] > 100 µM | [32] > 100 µM | [33] > 100 µM | [34] > 100 µM | [36] > 100 µM | [37] > 100 µM | [38] > 100 µM | [39] > 100 µM | [40] > 100 µM | [41] > 100 µM | [42] > 100 µM | [43] > 100 µM | [44] > 100 µM | [45] > 100 µM | [46] > 100 µM | [47] 38 µM | [48] > 100 µM | [49] > 100 µM | [50] > 100 µM | [51] > 100 µM | [52] > 100 µM | [53] > 100 µM
> 100 µM: [35]

Clc1ccc(-n2nnc(C3=NCCCN3)c2-c2ccccc2)cc1
inactive: [1] > 100 µM | [2] > 100 µM | [3] 88.7 µM | [4] > 100 µM | [5] > 100 µM | [6] > 100 µM | [7] > 100 µM | [54] > 100 µM | [8] > 100 µM | [9] > 100 µM | [10] > 100 µM | [11] > 100 µM | [12] > 100 µM | [13] > 100 µM | [14] > 100 µM | [15] 75.2 µM | [16] > 100 µM | [17] 67.3 µM | [18] > 100 µM | [19] > 100 µM | [21] > 100 µM | [22] > 100 µM | [23] > 100 µM | [24] > 100 µM | [25] > 100 µM | [26] > 100 µM | [55] > 100 µM | [27] > 100 µM | [28] > 100 µM | [29] > 100 µM | [30] > 100 µM | [56] > 100 µM | [31] > 100 µM | [57] > 100 µM | [32] > 100 µM | [33] > 100 µM | [34] > 100 µM | [58] > 100 µM | [36] > 100 µM | [37] > 100 µM | [38] > 100 µM | [39] > 100 µM | [40] > 100 µM | [59] > 100 µM | [41] > 100 µM | [42] > 100 µM | [43] > 100 µM | [44] > 100 µM | [45] > 100 µM | [46] > 100 µM | [47] > 100 µM | [48] > 100 µM | [49] > 100 µM | [50] > 100 µM | [51] > 100 µM | [52] > 100 µM | [53] > 100 µM
> 100 µM: [35]
